Experimental data from patent US12570659B2, “Bicyclic heteroaryl compounds useful as IRAK4 inhibitors” (BRISTOL-MYERS SQUIBB COMPANY, priority 2019, dated 2026).

How the values were obtained:
[1] = tested on: TLR2 agonist-stimulated IL-6 in human whole blood; assay: IRAK4 Whole Blood Assay; format: cell-based; settings: lipoteichoic acid 10 μg/mL, 5 hours, IL-6 levels
Experimental: Human whole blood containing the anti-coagulant ACD-A was plated in 384-well plate (25 μL/well) and incubated with compounds for 60 minutes at 37° C. in a 5% CO2 incubator. The blood was stimulated with a TLR2 agonist, 10 μg/mL final concentration of lipoteichoic acid (Invivogen, San Diego, CA) in 25 μL RPMI (Gibco) for 5 hours in a 5% CO2 incubator. At the end of the incubation, plates were centrifuged at 2300 rpm for 5 minutes. Supernatants were harvested and analyzed for IL-6 levels by Flow Cytometry beads assay (BD Biosciences, San Jose, CA).

JAK3 kinase = JAK3 kinase (Homo sapiens (Human), UniProt P52333); assay: JAK3 Homogeneous Time Resolved Fluorescence (HTRF) Assay; format: binding; settings: for IC50: competition binding with fluorescein-labeled ATP competitive probe; for Ratio of JAK3 IC50 to IRAK4 IC50: selectivity for IRAK4 over JAK3
JAK3 kinase, sequence (P52333 whole entry): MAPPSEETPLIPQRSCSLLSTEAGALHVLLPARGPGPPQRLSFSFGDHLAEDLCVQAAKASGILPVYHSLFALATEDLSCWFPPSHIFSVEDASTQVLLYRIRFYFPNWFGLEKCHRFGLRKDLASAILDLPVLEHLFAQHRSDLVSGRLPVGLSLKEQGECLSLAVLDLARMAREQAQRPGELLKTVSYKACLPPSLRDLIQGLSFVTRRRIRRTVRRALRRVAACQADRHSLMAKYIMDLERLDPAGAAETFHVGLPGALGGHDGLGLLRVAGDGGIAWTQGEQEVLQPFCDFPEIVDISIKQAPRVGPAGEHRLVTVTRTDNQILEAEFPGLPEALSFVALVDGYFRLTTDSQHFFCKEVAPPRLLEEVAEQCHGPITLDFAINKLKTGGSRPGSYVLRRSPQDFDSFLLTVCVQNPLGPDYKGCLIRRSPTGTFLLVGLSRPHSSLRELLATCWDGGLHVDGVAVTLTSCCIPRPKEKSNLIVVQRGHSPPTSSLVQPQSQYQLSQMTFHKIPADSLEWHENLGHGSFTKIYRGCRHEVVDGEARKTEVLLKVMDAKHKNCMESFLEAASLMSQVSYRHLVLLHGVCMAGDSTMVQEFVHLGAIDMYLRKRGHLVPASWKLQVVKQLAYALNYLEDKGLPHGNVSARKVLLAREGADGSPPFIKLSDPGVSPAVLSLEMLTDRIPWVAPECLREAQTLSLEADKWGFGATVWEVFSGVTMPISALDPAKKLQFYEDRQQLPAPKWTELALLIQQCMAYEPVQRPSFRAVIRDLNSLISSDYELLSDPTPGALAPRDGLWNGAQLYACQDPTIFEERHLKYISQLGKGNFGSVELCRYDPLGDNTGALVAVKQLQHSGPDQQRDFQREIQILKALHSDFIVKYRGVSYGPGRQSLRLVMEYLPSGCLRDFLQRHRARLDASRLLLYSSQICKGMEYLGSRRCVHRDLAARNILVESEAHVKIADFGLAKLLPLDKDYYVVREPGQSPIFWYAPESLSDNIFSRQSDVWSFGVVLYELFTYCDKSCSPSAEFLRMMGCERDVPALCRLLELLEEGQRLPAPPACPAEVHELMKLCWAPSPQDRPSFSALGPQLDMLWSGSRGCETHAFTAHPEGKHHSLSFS
In short: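 TR-FRET competition binding: 1 nM His- or GST-tagged JAK3 with 0.2 nM Tb-labeled anti-tag antibody, fluorescein ATP-competitive probe at its Kd, and compound for one hour. FRET read at 495/520 nm, normalized to no-compound signal. IC50 from 11 concentrations, 4-parameter logistic fit.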

IRAK4 = IRAK4 (Homo sapiens (Human), UniProt Q9NWZ3); assay: IRAK4 Inhibition Assay; format: biochemical; settings: ATP 500 μM; IRAK4 0.6 nM; 60 min room temperature
IRAK4, sequence (Q9NWZ3 whole entry, species assumed): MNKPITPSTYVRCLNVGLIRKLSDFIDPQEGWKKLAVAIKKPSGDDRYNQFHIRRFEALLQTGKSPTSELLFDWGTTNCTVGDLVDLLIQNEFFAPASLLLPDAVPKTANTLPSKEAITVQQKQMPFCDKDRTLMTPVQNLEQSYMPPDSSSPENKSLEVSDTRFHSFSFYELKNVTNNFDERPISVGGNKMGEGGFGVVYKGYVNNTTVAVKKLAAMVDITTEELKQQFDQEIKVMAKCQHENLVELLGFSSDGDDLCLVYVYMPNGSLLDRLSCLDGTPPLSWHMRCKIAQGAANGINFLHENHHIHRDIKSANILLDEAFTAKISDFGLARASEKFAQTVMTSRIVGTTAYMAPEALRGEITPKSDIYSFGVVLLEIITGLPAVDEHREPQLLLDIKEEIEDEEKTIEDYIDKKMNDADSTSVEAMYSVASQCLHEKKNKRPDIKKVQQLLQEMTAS
In short: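 Reaction started by combining IRAK4 with substrates and compound, run 60 min at room temperature and stopped with 35 mM EDTA. Fluorescent substrate and phosphorylated product were separated electrophoretically on a Caliper LabChip; inhibition normalized to no-enzyme (100%) and vehicle-only (0%) controls.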

In the case of `Cc1cc(F)ncc1-c1cc2c(NC(C)C)c(C(=O)N[C@H]3CC[C@H](C(N)=O)CC3)cnn2c1` [Example 88, N-((1r,4r)-4-carbamoylcyclohexyl)-6-(6-fluoro-4-methylpyridin-3-yl)-4-(isopropylamino)pyrrolo[1,2-b]pyridazine-3-carboxamide], the IC50 [1] is reported as over 10 µM, the IC50 (JAK3 kinase) is reported as over 50 µM and the “Ratio of JAK3 IC50 to IRAK4 IC50” value (JAK3 kinase) is reported as over 6579. For the same compound, the IC50 (IRAK4) was 0.0076 µM.
`CC(C)Nc1c(C(=O)NC2CCN(S(C)(=O)=O)CC2)cnn2cc(-c3ccc(F)nc3)cc12` [Example 85, 6-(6-fluoropyridin-3-yl)-4-(isopropylamino)-N-(1-(methylsulfonyl)piperidin-4-yl)pyrrolo[1,2-b]pyridazine-3-carboxamide] was tested, and the IC50 [1] was 0.87 µM, the IC50 (JAK3 kinase) was about 31 µM and the “Ratio of JAK3 IC50 to IRAK4 IC50” value (JAK3 kinase) was about 12400. The IC50 (IRAK4) was 0.0025 µM.
With `COC(=O)Nc1cc(-c2cc3c(NC(C)C)c(C(=O)NC[C@@H](F)C(C)(C)O)cnn3c2)ccn1` [Example 46, methyl (R)-(4-(3-((2-fluoro-3-hydroxy-3-methylbutyl)carbamoyl)-4-(isopropylamino)pyrrolo[1,2-b]pyridazin-6-yl)pyridin-2-yl) carbamate] the IC50 [1] was 6.23 µM, the IC50 (JAK3 kinase) was over 50 µM and the “Ratio of JAK3 IC50 to IRAK4 IC50” value (JAK3 kinase) was over 5495. It also gave an IC50 (IRAK4) of 0.0091 µM.
For `CC(C)CCNC(=O)c1cnn2cc(-c3ccncc3)cc2c1NC(C)C` [Example 64, N-isopentyl-4-(isopropylamino)-6-(pyridin-4-yl)pyrrolo[1,2-b]pyridazine-3-carboxamide], the IC50 [1] was 8.91 µM, the IC50 (JAK3 kinase) was about 29 µM and the “Ratio of JAK3 IC50 to IRAK4 IC50” value (JAK3 kinase) was about 2071. The IC50 (IRAK4) was 0.014 µM.
With `CC(C)Nc1c(C(=O)N[C@H]2CC[C@H](O)CC2)cnn2cc(-c3ccncc3)cc12` [Example 60, N-((1r,4r)-4-hydroxycyclohexyl)-4-(isopropylamino)-6-(pyridin-4-yl)pyrrolo[1,2-b]pyridazine-3-carboxamide] the IC50 [1] was 3.95 µM, the IC50 (JAK3 kinase) was over 50 µM and the “Ratio of JAK3 IC50 to IRAK4 IC50” value (JAK3 kinase) was over 5263. It also gave an IC50 (IRAK4) of 0.0095 µM.
For `CC(C)Nc1c(C(=O)N[C@H]2CC[C@H](c3nc[nH]n3)CC2)cnn2cc(-c3ccncc3)cc12` [Example 90, N-((1r,4r)-4-(1H-1,2,4-triazol-3-yl)cyclohexyl)-4-(isopropylamino)-6-(pyridin-4-yl)pyrrolo[1,2-b]pyridazine-3-carboxamide], the IC50 [1] was 0.63 µM, the IC50 (JAK3 kinase) was 10 µM and the “Ratio of JAK3 IC50 to IRAK4 IC50” value (JAK3 kinase) was 2703. It also gave an IC50 (IRAK4) of 0.0037 µM.
For `CC(C)Nc1c(C(=O)NC[C@@H](F)C(C)(C)O)cnn2cc(-c3ccncc3)cc12` [Example 5, (R)—N-(2-fluoro-3-hydroxy-3-methylbutyl)-4-(isopropylamino)-6-(pyridin-4-yl)pyrrolo[1,2-b]pyridazine-3-carboxamide], the IC50 [1] was 4.6 µM, the IC50 (JAK3 kinase) was 29 µM and the “Ratio of JAK3 IC50 to IRAK4 IC50” value (JAK3 kinase) was 3152. The IC50 (IRAK4) was 0.0092 µM.
For `CC(=O)N[C@H]1CC[C@H](NC(=O)c2cnn3cc(-c4cccnc4F)cc3c2NC(C)C)CC1` [Example 69, N-((1r,4r)-4-acetamidocyclohexyl)-6-(2-fluoropyridin-3-yl)-4-(isopropylamino)pyrrolo[1,2-b]pyridazine-3-carboxamide], the IC50 [1] was 7.01 µM, the IC50 (JAK3 kinase) was about 42 µM and the “Ratio of JAK3 IC50 to IRAK4 IC50” value (JAK3 kinase) was about 4565. The IC50 (IRAK4) was 0.0092 µM.
For `CC(C)Nc1c(C(=O)NCCN2CCOCC2)cnn2cc(-c3ccncc3F)cc12` [Example 71, 6-(3-fluoropyridin-4-yl)-4-(isopropylamino)-N-(2-morpholinoethyl)pyrrolo[1,2-b]pyridazine-3-carboxamide], the IC50 [1] was over 10 µM, the IC50 (JAK3 kinase) was 7 µM and the “Ratio of JAK3 IC50 to IRAK4 IC50” value (JAK3 kinase) was 972. The IC50 (IRAK4) was 0.0072 µM.
In the case of `CNC(=O)[C@H]1CC[C@H](NC(=O)c2cnn3cc(-c4ccncc4F)cc3c2NC(C)C)CC1` [Example 87, 6-(3-fluoropyridin-4-yl)-4-(isopropylamino)-N-((1r,4r)-4-(methylcarbamoyl)cyclohexyl) pyrrolo[1,2-b]pyridazine-3-carboxamide], the IC50 [1] is reported as 0.26 µM, the IC50 (JAK3 kinase) is reported as over 50 µM and the “Ratio of JAK3 IC50 to IRAK4 IC50” value (JAK3 kinase) is reported as over 16129. For the same compound, the IC50 (IRAK4) was 0.0031 µM.
